Experimental data reported in patent publication US6201116A, “Halide indicators” (The Regents of the University of California, priority 1999, dated 2001).

Tested on: 3T3 fibroblasts expressing CFTR
Assay: Intracellular sensitivity to I^-
Assay type: cell-based, mouse
Procedure: Fluorescence microscopy. Fluorescence microscopy measurements were performed as described previously (Chao et al., 1989). Briefly, coverglasses were mounted in a 0.5 ml perfusion chamber in which the cell-free glass surface made contact with an oil immersion objective (Nikon ×40 magnification, numerical aperture[NA] 1.3). Cell fluorescence was excited at 365±10 nm (SPQ) or 420 nm±10 nm (LZQ and LMQ). Emitted fluorescence was detected by a photomultiplier in a Nikon inverted epifluorescence microscope using a 410 nm dichroic mirror and 420 nm barrier filter (SPQ) or a 455 nm dichroic mirror and 500 nm barrier filter (LZQ). For cells colabeled with SPQ and LZQ, SPQ fluorescence was excited at 365±10 nm and detected using a 410 nm dichroic mirror and 455±30 nm interference filter. Confocal fluorescence micrographs were obtained using a Nipkow wheel confocal microscope and cooled CCD camera detector using a ×60 oil immersion objective (Nikon, NA 1.4). […]
A time course of LZQ fluorescence during perfusion with physiological saline at 23° C. was generated. A small group of 20-30 cells was illuminated continuously and fluorescence was detected by a photomultiplier using an ×40, 1.3 NA objective. Cellular fluorescence decreased slowly at a rate of 2.5% per hour. […] Background fluorescence (in non-labeled cells) was generally <5% of the fluorescence of LZQ-labeled cells. […]

For `[O-]c1nc2c(N[C@@H]3O[C@H](CO)[C@@H](O)[C@H]3O)ncnc2[n+]2ccccc12` [I, 4-(β-D-ribofuranosylamino)-pyrido [2,1-h] pteridin-11-ium-5-olate], the “intracellular Stern-Volmer constant, quenching by I^-” value (high [K^+] and ionophores) was 26 M⁻¹ and the “cellular fluorescence response to I^-” value (repeated addition and removal of 50 mM I^-) was “large, reversible changes in fluorescence”.
